# According to patent US20230210929A1, “MATERIALS AND METHODS FOR BLOCKING MALARIA INFECTION AND TRANSMISSION” (THE FLORIDA INTERNATIONAL UNIVERSITY BOARD OF TRUSTEES, priority 2021, published 2023):
# Values joined by “and” are separate entries in the source; they are usually repeats but may differ in a detail not shown here. Equal entries are not always repeated. “Also recorded” adds a separate entry of the source.
# How the values were obtained:
# [1] = tested on: interaction between FREP1 and P. falciparum-infected cell lysate; assay: ELISA of FREP1 binding to P. falciparum-infected cell lysate; conditions: pulixin 5 μg/mL
# Method: Small molecules that inhibited the FREP1-Plasmodium interaction to block malaria transmission were screened. In brief, P. falciparum-infected (NF54 obtained from the BEI Resources, Manassas, Va., USA) red blood cells (iRBCs) were cultured for 15-17 days. The iRBCs suspended in PBST (PBS containing 0.2% Tween-20) was homogenized by ultra-sonication with six cycles of 10 s of pulse and 50 s of resting on ice for each period. The lysates were centrifuged at 8,000×g for 2 min to remove insoluble materials and cellular debris. Then, 96-well ELISA plates were coated with 50 μL of the iRBC lysate (2 mg/mL protein) overnight at 4° C. After coating, the wells were blocked with 100 μL of 2% bovine serum albumin (BSA) in PBS per well for 1.5 h at room temperature (RT). After removal of the blocking solution, 49 μL of FREP1 (10 μg/mL) in blocking buffer (PBS containing 2% BSA) and 1 μL of fungal extract (2 mg/mL in DMSO) were added to each well, followed by incubation for 1 h at RT. […] Finally, each well was developed with 50 μL of pNPP substrate (Sigma-Aldrich) until the colors were visible, and absorbance at 405 nm was measured. […]
# The 15-17-day cultured P. falciparum infected cell lysate was prepared as described above. […] Rabbit anti-FREP1 polyclonal antibodies quantified the retained FREP1 as described above. After reaction with the pNPP, A405 was measured. […]
# [2] = tested on: P. falciparum transmission to An. gambiae; assay: Standard membrane feeding assay (SMFA), transmission-blocking activity by feeding; format: in vivo
# Method: The 15-17-day-old cultured P. falciparum iRBCs containing 2-3% stage V gametocytes were collected and diluted with new O+ type human blood, with the same volume of heat-inactivated AB+ human serum added. The final concentration of stage V gametocytes in the blood was around 0.2%. Then, 3 μL of the candidate fungal extract or pulixin with different concentrations in DMSO was mixed with 297 μL of infected blood and was used to feed about 100 3-5-day-old An. gambiae G3 female mosquitoes for 30 min, and the engorged mosquitoes were maintained with 8% sugar in a BSL-2 insectary (28° C., 12 h light/dark cycle, 80% humidity). The midguts were dissected 7 days after infection and stained with 0.1% mercury dibromofluorescein disodium salt in PBS. The oocysts were counted under a light microscope.
# [3] = tested on: P. falciparum gametocytes; assay: Conversion ratio from gametocytes to ookinetes; format: cell-based; conditions: pulixin 40 μM
# Method: P. falciparum (NF54) was cultured in the complete RPMI-1640 medium containing 4% new 0+ human red blood cells, 10% human AB+ serum, and 12.5 μg/mL of hypoxanthine in a candle jar at 37° C. To prepare P. falciparum ookinetes, 5 mL of day-15 cultured P. falciparum containing ˜2% stage V gametocytes were transferred into a 15 mL centrifuge tube and centrifuged at 650×g for 5 min at RT. The pellet was then resuspended in 500 μL of sterile ookinete culture medium (RPMI-1640 medium containing 20% human serum AB+, 50 μg/mL of hypoxanthine, 2 g/L NaHCO3). The resuspended cells were transferred into a well of a 12-well plate and incubated at room temperature on a shaker (20 rpm) for 24 h to generate ookinetes. Finally, cell mixtures of the ookinetes, gametocytes, and asexual-stage P. falciparum were collected by centrifugation at 650×g for 5 min at RT.
# The 15-17-day-old cultured P. falciparum was collected by centrifugation at 500×g for 3 min. The pellets were suspended in ookinete culture medium (incomplete RPMI-1640 containing 20% human serum AB+, 50 μg/mL of hypoxanthine, and 2 g/L of NaHCO3) to obtain 10^5 gametocytes per μL. […] After incubation on a shaker (20 rpm) at RT for 18-24 h, the ookinetes and gametocytes were counted using a Giemsa-stained blood smear under a bright-field microscope. The ratios of gametocytes to ookinetes were calculated.
# [4] = tested on: asexual-stage P. falciparum; assay: Inhibition assay of asexual Plasmodium falciparum proliferation; format: cell-based
# Method: The 3-5-day cultured iRBC were mixed with fresh human RBCs (AB+ type) in complete RPMI-1640 to prepare cultures with 0.5% parasitemia and 2% hematocrit. Pulixin was dissolved in DMSO at the concentration of 1 mg/mL and diluted with DMSO to various levels. A 2 μL pulixin solution mixed with 1 mL of cell culture was added to a 24-well plate. The plate was incubated in a candle jar at 37° C. Approximately 48 h later, the medium was replaced with fresh medium containing same concentration of pulixin. Parasitemia was recorded at 24, 48, 72, and 96 h post-incubation. The test for each concentration was replicated three times. EC50 was determined by analyzing the dose-response curve obtained with GraphPad Prism (GraphPad Software, CA, USA). The assays were repeated.
# [5] = tested on: human embryonic kidney 293 (HEK293) cells; assay: General cytotoxicity MTT assay; format: cell-based; conditions: 24 h
# Method: A drug could kill a cell or inhibit the cell proliferation through general cytotoxicity. Vybrant® MTT (3-(4,5-dimethylthiazol-2-yl)-2,5-diphenyl tetrazolium bromide) Cell Proliferation Assay (Thermo Fisher) was used to analyze living cells. The human embryonic kidney 293 (HEK293) cell line was used as the experimental cells. About 20,000 HEK293 cells in 100 μL of culture medium (RPMI 1640+2 mM glutamine+10% fetal bovine serum) were seeded per well in 96-well microplates. After incubation at 37° C. with 5% CO2 for 24 h, 1 μL of pulixin in DMSO at various dilutions was added into each well to obtain a final concentration of 0, 1, 3, 10, 30, and 100 μg/mL. Three replicates were conducted for each concentration. Following the incubation at 37° C. with 5% CO2 for 24 h, 10 μL, of MTT (5 mg/mL in PBS) was added into each well and incubated for 4 h at 37° C. with 5% CO2. All but 25 μL of the medium was removed from the wells, 100 μL of DMSO was added to each well and incubated at 37° C. for 10 min to dissolve formazan crystals for measurement. Optical density was measured at an absorbance wavelength of 540 nm. The data were analyzed using ANOVA in Prism 8 (GraphPad, San Diego, Calif.). The experiment was independently performed twice.
compound,measurement,setting,value
"Cc1cc(N)cc2oc(=O)c3c(O)cc(O)cc3c12 [pulixin, 3-amino-7,9-dihydroxy-1-methyl-6H-benzo[c]chromen-6-one]",inhibition of the interaction between the FREP1 protein and P. falciparum-infected cell lysate,[1],about 50%
same,EC50,"[2]; Anopheles gambiae, 168 h, read-out: EC50, concentration that inhibits 50% of infection intensity (number of oocysts per mosquito)",11 µM
same,inhibition of malaria transmission,[2]; pulixin 40 μM in infected blood,completely inhibited; also recorded: completely blocked
same,conversion of gametocytes to ookinetes versus control,[3],no significant difference; also recorded: did not inhibit
same,EC50,"[4]; Plasmodium falciparum, 96 h, parasitemia on day 4, read-out: EC50 inhibiting development of asexual-stage P. falciparum",0.012 µg/mL and 47 nM
same,P. falciparum-infected cells on day 4 versus control (0 μg/mL),[4]; pulixin greater than 0.01 μg/mL,Significantly fewer
same,density of living HEK293 cells versus control,[5]; pulixin 0 to 30 μg/mL (116 μM),No significant difference
same,density of living HEK293 cells versus other concentrations,[5]; pulixin 100 μg/mL,significant reduction; also recorded: significantly lower
